Data published in publication PMC5218480 (PLoS ONE, 2017).

Tested on: MV-4-11 cells
Experiment: Gene expression microarray analysis (Affymetrix PrimeView) and GSEA
Assay type: cell-based, human
Design: RFU PODN (11730768_x_at) / Fold change /veh PODN (11730768_x_at) / RFU LINC00158 (11744669_a_at) / Fold change /veh LINC00158 (11744669_a_at) / RFU DUSP10 (11751237_a_at) / Fold change /veh DUSP10 (11751237_a_at) / RFU ID3 (11757404_x_at) / Fold change /veh ID3 (11757404_x_at) / RFU PLEKHG5 (11737974_s_at) / Fold change /veh PLEKHG5 (11737974_s_at) / RFU LRRC4B (11730491_at) / Fold change /veh LRRC4B (11730491_at) / RFU GIMAP4 (11747438_a_at) / Fold change /veh GIMAP4 (11747438_a_at) / RFU KRT8 (11758183_x_at) / Fold change /veh KRT8 (11758183_x_at) / RFU CNN1 (11734310_a_at) / Fold change /veh CNN1 (11734310_a_at) / RFU VPS37D (11726825_at) / Fold change /veh VPS37D (11726825_at) / RFU C10orf10 (11716522_x_at) / Fold change /veh C10orf10 (11716522_x_at) / RFU KIR2DL2 /// KIR2DL4 /// KIR2DL5A /// KIR2DL5B /// KIR2DS1 /// KIR2DS2 /// KIR2DS3 /// KIR2DS4 /// KIR3DL3 /// KIR3DL3 /// KIR3DS1 (11738374_at) / Fold change /veh KIR2DL2 /// KIR2DL4 /// KIR2DL5A /// KIR2DL5B /// KIR2DS1 /// KIR2DS2 /// KIR2DS3 /// KIR2DS4 /// KIR3DL3 /// KIR3DL3 /// KIR3DS1 (11738374_at) / RFU C1QL1 (11718748_at) / Fold change /veh C1QL1 (11718748_at) / RFU TMPRSS4 (11747572_a_at) / Fold change /veh TMPRSS4 (11747572_a_at) / RFU HAMP (11756126_x_at) / Fold change /veh HAMP (11756126_x_at) / RFU RNFT2 (11725882_a_at) / Fold change /veh RNFT2 (11725882_a_at) / RFU NR4A2 (11747474_a_at) / Fold change /veh NR4A2 (11747474_a_at) / RFU ABCC12 (11746883_a_at) / Fold change /veh ABCC12 (11746883_a_at) / RFU TMEM136 (11760407_x_at) / Fold change /veh TMEM136 (11760407_x_at) / RFU CLDN22 /// WWC2 (11732394_at) / Fold change /veh CLDN22 /// WWC2 (11732394_at) / RFU HLA-DPB1 (11760878_x_at) / Fold change /veh HLA-DPB1 (11760878_x_at) / RFU SPINT1 (11716480_a_at) / Fold change /veh SPINT1 (11716480_a_at) / RFU GAP43 (11754022_s_at) / Fold change /veh GAP43 (11754022_s_at) / RFU A4GNT (11735810_at) / Fold change /veh A4GNT (11735810_at) / RFU PRB3 (11715151_x_at) / Fold change /veh PRB3 (11715151_x_at) / RFU TUBB4B (11761932_at) / Fold change /veh TUBB4B (11761932_at) / RFU CAPN14 (11732068_a_at) / Fold change /veh CAPN14 (11732068_a_at) / RFU TMCC2 (11721928_a_at) / Fold change /veh TMCC2 (11721928_a_at) / RFU IRGQ (11745062_a_at) / Fold change /veh IRGQ (11745062_a_at) / RFU FAM174B (11720279_a_at) / Fold change /veh FAM174B (11720279_a_at) / RFU TMPRSS4 (11748680_a_at) / Fold change /veh TMPRSS4 (11748680_a_at) / RFU FAM212B (11763350_a_at) / Fold change /veh FAM212B (11763350_a_at) / RFU PLEKHG5 (11743358_a_at) / Fold change /veh PLEKHG5 (11743358_a_at) / RFU ZSCAN30 (11745921_a_at) / Fold change /veh ZSCAN30 (11745921_a_at) / RFU CMKLR1 (11741424_a_at) / Fold change /veh CMKLR1 (11741424_a_at) / RFU LOC101060620 /// MAPK8IP1 (11723275_at) / Fold change /veh LOC101060620 /// MAPK8IP1 (11723275_at) / RFU SPTSSB (11747773_x_at) / Fold change /veh SPTSSB (11747773_x_at) / RFU PRSS12 (11739890_at) / Fold change /veh PRSS12 (11739890_at) / RFU BIN1 (11741810_x_at) / Fold change /veh BIN1 (11741810_x_at) / RFU WNT11 (11732464_a_at) / Fold change /veh WNT11 (11732464_a_at) / RFU C10orf10 (11716521_a_at) / Fold change /veh C10orf10 (11716521_a_at) / RFU C5orf56 (11738089_at) / Fold change /veh C5orf56 (11738089_at) / RFU CYB561 (11721691_x_at) / Fold change /veh CYB561 (11721691_x_at) / RFU ANKRD19P (11752326_a_at) / Fold change /veh ANKRD19P (11752326_a_at) / RFU OR2T12 /// OR2T33 /// OR2T8 (11738714_s_at) / Fold change /veh OR2T12 /// OR2T33 /// OR2T8 (11738714_s_at) / RFU VCAN (11748164_a_at) / Fold change /veh VCAN (11748164_a_at) / RFU JSRP1 (11732532_at) / Fold change /veh JSRP1 (11732532_at) / RFU KRTAP10-11 (11738290_x_at) / Fold change /veh KRTAP10-11 (11738290_x_at) / RFU MYO3A (11730013_a_at) / Fold change /veh MYO3A (11730013_a_at) / RFU EBF3 (11725865_a_at) / Fold change /veh EBF3 (11725865_a_at) / RFU CAMK2N1 (11719241_x_at) / Fold change /veh CAMK2N1 (11719241_x_at) / RFU C5orf56 (11738088_a_at) / Fold change /veh C5orf56 (11738088_a_at) / RFU OLFML3 (11715873_a_at) / Fold change /veh OLFML3 (11715873_a_at) / RFU LOC100653217 /// NTM (11731650_a_at) / Fold change /veh LOC100653217 /// NTM (11731650_a_at) / RFU MAPK11 (11762145_a_at) / Fold change /veh MAPK11 (11762145_a_at) / RFU FIZ1 (11724087_x_at) / Fold change /veh FIZ1 (11724087_x_at) / RFU OASL (11726364_x_at) / Fold change /veh OASL (11726364_x_at) / RFU SOX15 (11748057_x_at) / Fold change /veh SOX15 (11748057_x_at) / RFU CD79A (11719716_a_at) / Fold change /veh CD79A (11719716_a_at) / RFU HIST1H1D (11736915_at) / Fold change /veh HIST1H1D (11736915_at) / RFU CASKIN2 (11723855_a_at) / Fold change /veh CASKIN2 (11723855_a_at) / RFU LOC730098 (11760151_x_at) / Fold change /veh LOC730098 (11760151_x_at) / RFU OR4N2 (11742367_at) / Fold change /veh OR4N2 (11742367_at) / RFU PRRT2 (11749266_a_at) / Fold change /veh PRRT2 (11749266_a_at) / RFU SNX32 (11753110_a_at) / Fold change /veh SNX32 (11753110_a_at) / RFU CDHR5 (11726645_a_at) / Fold change /veh CDHR5 (11726645_a_at) / RFU RCAN1 (11760418_a_at) / Fold change /veh RCAN1 (11760418_a_at) / RFU FAM167A (11723789_a_at) / Fold change /veh FAM167A (11723789_a_at) / RFU FAM26E (11764081_at) / Fold change /veh FAM26E (11764081_at) / RFU ISYNA1 (11749810_s_at) / Fold change /veh ISYNA1 (11749810_s_at) / RFU ACY1 (11761880_at) / Fold change /veh ACY1 (11761880_at) / RFU 11764098_at / Fold change /veh 11764098_at / RFU SAMD14 (11745864_x_at) / Fold change /veh SAMD14 (11745864_x_at) / RFU NPB (11741838_a_at) / Fold change /veh NPB (11741838_a_at) / RFU TMPRSS6 (11731388_a_at) / Fold change /veh TMPRSS6 (11731388_a_at) / RFU KRTAP10-2 (11738614_at) / Fold change /veh KRTAP10-2 (11738614_at) / RFU ARHGAP8 /// PRR5-ARHGAP8 (11727945_x_at) / Fold change /veh ARHGAP8 /// PRR5-ARHGAP8 (11727945_x_at) / RFU KRTAP5-7 /// NADSYN1 (11734609_at) / Fold change /veh KRTAP5-7 /// NADSYN1 (11734609_at) / RFU RASL12 (11751679_a_at) / Fold change /veh RASL12 (11751679_a_at) / RFU CDKN2B (11736163_a_at) / Fold change /veh CDKN2B (11736163_a_at) / RFU PRF1 (11729649_at) / Fold change /veh PRF1 (11729649_at) / RFU, ZNF638 /// ZNF638-IT1 / Fold change vs veh, ZNF638 /// ZNF638-IT1 / RFU, PANK3 / Fold change vs veh, PANK3 / RFU, SH3YL1 / Fold change vs veh, SH3YL1 / RFU, ZEB2 / Fold change vs veh, ZEB2 / RFU, NRIP1 / Fold change vs veh, NRIP1 / RFU, PTTG1IP / Fold change vs veh, PTTG1IP / RFU, CAPN2 / Fold change vs veh, CAPN2 / RFU, MED14 / Fold change vs veh, MED14 / RFU, SNORA58 / Fold change vs veh, SNORA58 / RFU, C1orf63 / Fold change vs veh, C1orf63 / RFU, LRRFIP1 / Fold change vs veh, LRRFIP1 / RFU, NDUFAF7 / Fold change vs veh, NDUFAF7 / RFU, SLC12A2 / Fold change vs veh, SLC12A2 / RFU, IBTK / Fold change vs veh, IBTK / RFU, ESF1 / Fold change vs veh, ESF1 / Fold change vs veh, TMEM50B / RFU, TAOK1 / Fold change vs veh, TAOK1 / RFU, ACBD3 / Fold change vs veh, ACBD3 / RFU, TMA16 / Fold change vs veh, TMA16 / RFU, RWDD3 / Fold change vs veh, RWDD3 / RFU, BCAT1 / Fold change vs veh, BCAT1 / RFU, EDEM3 / Fold change vs veh, EDEM3 / RFU, TMEM33 / Fold change vs veh, TMEM33 / RFU, WDR75 / Fold change vs veh, WDR75 / RFU, AHCTF1 / Fold change vs veh, AHCTF1 / RFU, TFRC / Fold change vs veh, TFRC / RFU, ZDHHC17 / Fold change vs veh, ZDHHC17 / RFU, NOM1 / Fold change vs veh, NOM1 / RFU, ARL8B / Fold change vs veh, ARL8B / RFU, ZBTB11 / Fold change vs veh, ZBTB11 / RFU, TAMM41 / Fold change vs veh, TAMM41 / RFU, KIAA1704 /// LOC100996395 / Fold change vs veh, KIAA1704 /// LOC100996395 / RFU, ING1 / Fold change vs veh, ING1 / RFU, TRMT61B / Fold change vs veh, TRMT61B / RFU, FUBP3 / Fold change vs veh, FUBP3 / RFU, TP53 / Fold change vs veh, TP53 / RFU, TNKS2 / Fold change vs veh, TNKS2 / RFU, ZFP14 / Fold change vs veh, ZFP14 / RFU, ACTR2 / Fold change vs veh, ACTR2 / RFU, PPP3R1 / Fold change vs veh, PPP3R1 / RFU, PIK3R1 / Fold change vs veh, PIK3R1 / RFU, HNRNPA1 / Fold change vs veh, HNRNPA1 / RFU, RNF170 / Fold change vs veh, RNF170 / RFU, ZNF28 / Fold change vs veh, ZNF28 / RFU, RNGTT / Fold change vs veh, RNGTT / RFU, OGT / Fold change vs veh, OGT / RFU, BRD1 / Fold change vs veh, BRD1 / RFU, MARS / Fold change vs veh, MARS / RFU, ZNF655 / Fold change vs veh, ZNF655 / RFU, FAHD1 / Fold change vs veh, FAHD1 / RFU, BDP1 / Fold change vs veh, BDP1 / RFU, LRRCC1 / Fold change vs veh, LRRCC1 / RFU, ARID1A / Fold change vs veh, ARID1A / RFU, ZNF146 / Fold change vs veh, ZNF146 / RFU, ZNF330 / Fold change vs veh, ZNF330 / RFU, GPN3 / Fold change vs veh, GPN3 / RFU, C9orf123 / Fold change vs veh, C9orf123 / RFU, N4BP2L2 / Fold change vs veh, N4BP2L2 / RFU, ARFIP1 / Fold change vs veh, ARFIP1 / RFU, FAM179B / Fold change vs veh, FAM179B / RFU, BCL10 / Fold change vs veh, BCL10 / RFU, UHRF1BP1L / Fold change vs veh, UHRF1BP1L / RFU, BET1 / Fold change vs veh, BET1 / RFU, CNOT2 / Fold change vs veh, CNOT2 / RFU, ZNF268 / Fold change vs veh, ZNF268 / Fold change vs veh, ZNF507 / RFU, DGCR2 / Fold change vs veh, DGCR2 / RFU, WDSUB1 / Fold change vs veh, WDSUB1 / Fold change vs veh, HSP90B1 /// MIR3652 / RFU, ADSS / Fold change vs veh, ADSS / RFU, GK / Fold change vs veh, GK / RFU, ZNF148 / Fold change vs veh, ZNF148 / RFU, TAF9 / Fold change vs veh, TAF9 / RFU, SLC1A5 / Fold change vs veh, SLC1A5 / RFU, SLMO2 / Fold change vs veh, SLMO2 / RFU, ABCC4 / Fold change vs veh, ABCC4 / RFU, LOC101060439 /// RAP1B / Fold change vs veh, LOC101060439 /// RAP1B / RFU, RFX7 / Fold change vs veh, RFX7 / RFU, GTPBP10 / Fold change vs veh, GTPBP10 / RFU, CNEP1R1 / Fold change vs veh, CNEP1R1 / RFU, BIVM-ERCC5 /// ERCC5 / Fold change vs veh, BIVM-ERCC5 /// ERCC5 / RFU, ILF3 / Fold change vs veh, ILF3 / RFU 11762660_at / Fold change /veh 11762660_at / RFU VCAN (11757783_s_at) / Fold change /veh VCAN (11757783_s_at) / RFU DDX43 (11728927_at) / Fold change /veh DDX43 (11728927_at) / RFU KRT8 (11758188_x_at) / Fold change /veh KRT8 (11758188_x_at) / RFU NKD1 (11759106_at) / Fold change /veh NKD1 (11759106_at) / RFU SRD5A1 (11742802_a_at) / Fold change /veh SRD5A1 (11742802_a_at) / RFU TPSAB1 /// TPSB2 (11721975_s_at) / Fold change /veh TPSAB1 /// TPSB2 (11721975_s_at) / RFU GSTM3 (11746129_a_at) / Fold change /veh GSTM3 (11746129_a_at) / RFU IL23R (11737362_x_at) / Fold change /veh IL23R (11737362_x_at) / RFU TMEM51 (11727254_a_at) / Fold change /veh TMEM51 (11727254_a_at) / RFU PIWIL2 (11732686_x_at) / Fold change /veh PIWIL2 (11732686_x_at) / RFU ORM1 (11744905_x_at) / Fold change /veh ORM1 (11744905_x_at) / RFU CCDC152 (11743942_at) / Fold change /veh CCDC152 (11743942_at) / RFU ECM1 (11717891_a_at) / Fold change /veh ECM1 (11717891_a_at) / RFU IL23R (11748794_a_at) / Fold change /veh IL23R (11748794_a_at) / RFU TNFAIP8L3 (11732012_x_at) / Fold change /veh TNFAIP8L3 (11732012_x_at) / RFU MBOAT4 (11741988_at) / Fold change /veh MBOAT4 (11741988_at) / RFU 11764193_at / Fold change /veh 11764193_at / RFU TMEM53 (11763286_at) / Fold change /veh TMEM53 (11763286_at) / RFU MAGEB2 (11727129_at) / Fold change /veh MAGEB2 (11727129_at) / RFU TMEM200A (11744735_a_at) / Fold change /veh TMEM200A (11744735_a_at) / RFU CCDC152 (11751479_a_at) / Fold change /veh CCDC152 (11751479_a_at) / RFU FAM211A (11726209_a_at) / Fold change /veh FAM211A (11726209_a_at) / RFU RGS16 (11746705_a_at) / Fold change /veh RGS16 (11746705_a_at) / RFU VCAN (11755009_s_at) / Fold change /veh VCAN (11755009_s_at) / RFU RHOB (11743442_s_at) / Fold change /veh RHOB (11743442_s_at) / RFU RGS16 (11720943_a_at) / Fold change /veh RGS16 (11720943_a_at) / RFU RGS16 (11720944_at) / Fold change /veh RGS16 (11720944_at) / RFU, VPS4B / Fold change vs veh, VPS4B / RFU, CREB1 / Fold change vs veh, CREB1 / RFU, DNAJC13 / Fold change vs veh, DNAJC13 / RFU, GNAQ / Fold change vs veh, GNAQ / RFU, CDK5R1 / Fold change vs veh, CDK5R1 / RFU, ZRANB3 / Fold change vs veh, ZRANB3 / RFU, CUL4A / Fold change vs veh, CUL4A / RFU, CCNY / Fold change vs veh, CCNY / RFU, UFL1 / Fold change vs veh, UFL1 / RFU, COG3 / Fold change vs veh, COG3 / RFU, DIAPH2 / Fold change vs veh, DIAPH2 / RFU, SKA2 / Fold change vs veh, SKA2 / RFU, AFF3 / Fold change vs veh, AFF3 / RFU, LMF1 / Fold change vs veh, LMF1 / RFU, IPO11 / Fold change vs veh, IPO11 / RFU, DFFB / Fold change vs veh, DFFB / RFU, FOXP1 / Fold change vs veh, FOXP1 / RFU, CARD8 / Fold change vs veh, CARD8 / RFU, STRN3 / Fold change vs veh, STRN3 / RFU, ADK / Fold change vs veh, ADK / RFU, RASSF2 / Fold change vs veh, RASSF2 / RFU, WIPF1 / Fold change vs veh, WIPF1 / RFU, LARP1B / Fold change vs veh, LARP1B / RFU, RASA1 / Fold change vs veh, RASA1 / RFU, RB1 / Fold change vs veh, RB1 / RFU, PPFIA1 / Fold change vs veh, PPFIA1 / RFU, MAT2A / Fold change vs veh, MAT2A / RFU, CCT5 / Fold change vs veh, CCT5 / RFU, WDR92 / Fold change vs veh, WDR92 / RFU, CUX1 / Fold change vs veh, CUX1 / RFU, TTC7A / Fold change vs veh, TTC7A / RFU, TMEM135 / Fold change vs veh, TMEM135 / RFU, DEPTOR / Fold change vs veh, DEPTOR / RFU, CPM / Fold change vs veh, CPM / RFU, DNAJB6 / Fold change vs veh, DNAJB6 / RFU, CACNA2D3 / Fold change vs veh, CACNA2D3 / RFU, DTX4 / Fold change vs veh, DTX4 / RFU, TFCP2 / Fold change vs veh, TFCP2 / RFU, GMCL1 /// GMCL1P1 / Fold change vs veh, GMCL1 /// GMCL1P1 / RFU, AEBP2 / Fold change vs veh, AEBP2 / RFU, SNHG1 /// SNORD22 /// SNORD25 /// SNORD26 /// SNORD27 /// SNORD28 /// SNORD29 /// SNORD31 / Fold change vs veh, SNHG1 /// SNORD22 /// SNORD25 /// SNORD26 /// SNORD27 /// SNORD28 /// SNORD29 /// SNORD31 / Fold change (Aza/veh), C12orf56 (ProbeSet 11735607_a_at) / Fold change (ACY-1035/veh), C12orf56 (ProbeSet 11735607_a_at) / Fold change (Aza/veh), FGFR1OP (ProbeSet 11751329_s_at) / Fold change (ACY-1035/veh), FGFR1OP (ProbeSet 11751329_s_at) / Fold change (Aza/veh), VPS36 (ProbeSet 11739960_a_at) / Fold change (ACY-1035/veh), VPS36 (ProbeSet 11739960_a_at) / RFU SYPL1 (11715823_x_at) / Fold change /veh SYPL1 (11715823_x_at) / RFU IGFBP7 (11715501_s_at) / Fold change /veh IGFBP7 (11715501_s_at) / RFU REEP3 (11722064_at) / Fold change /veh REEP3 (11722064_at) / RFU IGLL1 (11728026_x_at) / Fold change /veh IGLL1 (11728026_x_at): dose or concentration left out as unconfirmed
Details: MV-4-11 cells, 48 hours

Nc1ncn([C@@H]2O[C@H](CO)[C@@H](O)[C@H]2O)c(=O)n1 [azacitidine] was tested, and the “Fold change /veh PRRT2 (11749266_a_at)” value was 0.89.
